Data on three compounds can be found in patent publication US12365672B2, “Compounds and their use for the treatment of alpha1-antitrypsin deficiency” (CENTESSA PHARMACEUTICALS (UK) LIMITED, priority 2019, dated 2025).

T1 sequence (P01009 25-418 E366K): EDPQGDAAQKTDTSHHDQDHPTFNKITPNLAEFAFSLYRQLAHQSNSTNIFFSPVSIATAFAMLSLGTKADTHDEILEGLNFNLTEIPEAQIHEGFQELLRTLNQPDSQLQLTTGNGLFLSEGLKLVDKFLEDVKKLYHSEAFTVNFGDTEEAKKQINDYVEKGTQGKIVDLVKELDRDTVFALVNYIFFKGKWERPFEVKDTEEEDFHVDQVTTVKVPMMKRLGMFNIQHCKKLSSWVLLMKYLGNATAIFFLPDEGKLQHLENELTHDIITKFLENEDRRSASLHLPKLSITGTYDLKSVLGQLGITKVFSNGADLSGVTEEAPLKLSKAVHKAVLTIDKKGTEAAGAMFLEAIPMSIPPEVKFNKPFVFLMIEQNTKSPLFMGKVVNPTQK

The assay has as its target T1, human Z A1AT (Homo sapiens, UniProt P01009, E366K).
T1 construct: expressed in transfected cells; host or cells: HEK-Z cells (human embryonic kidney cell line)
Put plainly: A1AT cell secretion assay using HEK-Z cells (ELISA of supernatant). It counts as cell-based. As to conditions: 48 h, A1AT in supernatant by ELISA. Here is the method: HEK-Z cells, a human embryonic kidney cell line stably transfected with the human Z A1AT gene, were plated into 96 well plates (3.0×10^5 cells/ml with 200 μl of media/well) overnight at 37° C. in a humidified atmosphere containing 5% CO2. Following incubation cells were washed with 200 μl serum-free media three times and media was replaced with treatments in quadruplicate using serum free media containing either vehicle, 10 μM suberanilohydroxamic acid (SAHA) or a compound of the invention (at concentrations of 10, 33, 100 and 333 nM) for 48 h in a 37° C. incubator in a final volume of 200 μl. At the end of the incubation step the supernatants were removed from the wells, centrifuged at 1000×g at 4° C. for 10 min and were assayed for human A1AT levels by ELISA (Human Serpin A1/α1-antitrypsin duo set ELISA, R& D Systems, DY1268) per manufacturer's instructions.
Briefly, a 96 well plate was coated with human A1AT capture antibody overnight at room temperature (1:180 dilution from stock, 100 μl final volume/well). The capture antibody was then removed and wells washed three times with 300 μl wash buffer (0.05% Tween 20 in PBS) and then 200 μl reagent diluent ([…]) was incubated in each well for 1 h at room temperature. Diluted samples, standards (125, 250, 500, 1000, 2000, 4000 and 8000 pg/ml A1AT) or blanks were then added to each well in duplicate and the plates were covered with a plate sealer and left at room temperature for 2 h. At the end of the sample incubation step, samples were removed and all wells washed as previously and 100 μl detection antibody (1:180 dilution from stock) was added to each well and incubated for a further 2 h at room temperature. […] After which, 50 μl stop solution (2M H2SO4) was added and optical density (OD) of each well was read at 450 nm with 570 nm blank subtracted from each well using a microplate reader. A 4 parameter logistic curve was constructed using GraphPad Prism 7 and A1AT concentrations were determined in each sample by interpolation from a standard curve and multiplying by the appropriate dilution factor.
For the compound `O=c1ccncn1Cc1ccc(-c2ncco2)cc1` [Example 1, 3-(4-(oxazol-2-yl)benzyl)pyrimidin-4(3H)-one], the “Median A1AT % increase over vehicle at 300 nM” value stood at 180%. Under `O=c1c2ccccc2ncn1Cc1ccc(-c2ncco2)cc1` [Example 2, 3-(4-(oxazol-2-yl)benzyl)quinazolin-4(3H)-one] stands 140%; under `O=c1cc[nH]c(=O)n1Cc1ccc(-c2ncco2)cc1` [Example 3, 3-(4-(oxazol-2-yl)benzyl)pyrimidine-2,4(1H,3H)-dione], 180%.
